One experiment concerns H23 cells. Description: H23 Cellular Proliferation Assay (CellTiter-Glo). The class given is cell-based. The note with it: Homo sapiens, NCI-H23, 96 h, 4 days. As for the experimental part:
Cells were treated with compounds diluted in DMSO and a 9 point 5-fold serial dilutions. Plates were placed in 37° C., 5% CO2 to incubate for 4 days. Before they were developed by adding 100 μL of CellTiter-Glo reagent (Promega) to the assay plate, plates were shaken briefly for 2 mins and allowed to incubate at RT for 10 mins. The plates are read with a M5e plate reader according to CellTiter-Glo protocol. The GraphPad Prism software was used to get IC50 values. The bottom of the plates was pasted with white back seal and luminescence was recorded with Enspire or Envision.

The target of the next experiment is Wee1 kinase (Homo sapiens (Human), UniProt P30291). Description: Wee1 Binding Assay (FRET). The note with it: Wee1 kinase 2 nM, tracer 178 50 nM, 60 min at RT, read-out: Wee1 Enzymatic IC50. The protocol: Wee 1 kinase was determined by using Flurorescence Resonance Energy Transfer (FRET) assay. […] The plate was shaken for 30 seconds, incubated for 60 min at RT, and recorded on fluorescence plate reader.

A further experiment concerns SW480 cells. Description: SW480 Cellular Proliferation Assay (CellTiter-Glo). The class given is cell-based. The following applies: Homo sapiens, 96 h, 4 days. As for the experimental part:
Cells were treated with compounds diluted in DMSO and a 10 point 3-fold serial dilutions. Plates were placed in 37° C., 5% CO2 for to incubate for 4 days. Before they were developed by adding 100 μL of CellTiter-Glo reagent (Promega) to the assay plate, plates were shaken briefly for 2 mins and allowed to incubate at RT for 60 mins. The bottom of the plates was pasted with white back seal and luminescence was recorded with Enspire or Envision.
For orientation: Cellular ATP, detected with luciferase, serves as a proxy for viable cell number.

Structures are written as SMILES. Where a name gives a salt, the structure may show the parent alone.

Sequence of Wee1 kinase (P30291 whole entry): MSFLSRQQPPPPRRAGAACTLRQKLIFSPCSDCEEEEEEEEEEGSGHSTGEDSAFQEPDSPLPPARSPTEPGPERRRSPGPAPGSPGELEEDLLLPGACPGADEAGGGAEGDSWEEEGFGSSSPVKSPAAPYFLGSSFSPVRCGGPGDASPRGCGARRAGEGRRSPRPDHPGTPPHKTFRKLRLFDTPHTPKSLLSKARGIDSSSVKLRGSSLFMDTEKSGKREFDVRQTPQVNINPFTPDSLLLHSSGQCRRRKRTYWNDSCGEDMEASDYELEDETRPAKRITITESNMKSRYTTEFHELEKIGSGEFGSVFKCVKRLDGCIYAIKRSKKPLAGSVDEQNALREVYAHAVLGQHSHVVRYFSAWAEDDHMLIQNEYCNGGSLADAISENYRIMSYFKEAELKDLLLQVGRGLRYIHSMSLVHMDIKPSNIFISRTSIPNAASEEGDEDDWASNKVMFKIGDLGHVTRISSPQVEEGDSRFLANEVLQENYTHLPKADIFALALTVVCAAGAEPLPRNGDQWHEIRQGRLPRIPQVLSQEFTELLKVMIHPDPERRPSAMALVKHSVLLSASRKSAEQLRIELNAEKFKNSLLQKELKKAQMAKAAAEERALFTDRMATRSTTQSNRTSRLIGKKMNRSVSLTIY

The IC50 is the concentration needed to halve the response being measured. As for `C=CCn1c(=O)c2cnc(Nc3ccc4c(c3)[C@@H](C)NCC4(C)C)nc2n1-c1cccc(C(C)(C)O)n1` (single isomer, unassigned) [Example 29], the IC50 was 100 to 1000 nM with H23 cells and less than 10 nM at Wee1 kinase.
In the same order, the values of `C=CCn1c(=O)c2cnc(Nc3ccc4c(c3)[C@H](C)NCC4(C)C)nc2n1-c1cccc(C(C)(C)O)n1` (single isomer, unassigned) [Example 30] are less than 100 nM and less than 10 nM.
Consider `C=CCn1c(=O)c2cnc(Nc3ccc(N4CCN(C)CC4)cc3)nc2n1-c1cccc(C(C)(C)O)n1` [AZD1775, 2-allyl-1-(6-(2-hydroxypropan-2-yl)pyridin-2-yl)-6-(4-(4-methylpiperazin-1-yl)phenylamino)-1,2-dihydropyrazolo[3,4-d]pyrimidin-3-one, reference compound], for which the half-maximal inhibitory concentration (IC50) in the experiment with SW480 cells and in the experiment on H23 cells was 100 to 1000 nM each time.
Take `C=CCn1c(=O)c2cnc(Nc3ccc4c(c3)CN(C)CC43CC3)nc2n1-c1cccc(C(C)(C)O)n1` [Example 1, 2-Allyl-1-(6-(2-hydroxypropan-2-yl)pyridin-2-yl)-6-((2′-methyl-2′,3′-dihydro-1′H-spiro-[cyclopropane-1,4′-isoquinolin]-7′-yl)amino)-1,2-dihydro-3H-pyrazolo[3,4-d]pyrimidin-3-one]: the IC50 in the experiment with SW480 cells is 100 to 1000 nM; with H23 cells, less than 100 nM.
For the compound `C=CCn1c(=O)c2cnc(Nc3ccc4c(c3)CNCC43CC3)nc2n1-c1cccc(C(C)(C)O)n1` [Example 2, 2-Alyl-6-((2′,3′-dihydro-1′H-spiro[cyclopropane-1,4′-isoquinolin]-7′-yl)amino)-1-(6-(2-hydroxypropan-2-yl)pyridin-2-yl)-1,2-dihydro-3H-pyrazolo[3,4-d]pyrimidin-3-one hydrochloride], the results for the IC50 in the experiment on SW480 cells, in the experiment with H23 cells and on Wee1 kinase were greater than 1000 nM, less than 100 nM and less than 10 nM, respectively.
On to `C=CCn1c(=O)c2cnc(Nc3ccc4c(c3)CN(C(C)C)CC43CC3)nc2n1-c1cccc(C(C)(C)O)n1` [Example 3, 2-Allyl-1-(6-(2-hydroxypropan-2-yl)pyridin-2-yl)-6-((2′-isopropyl-2′,3′-dihydro-1′H-spiro[cyclopropane-1,4′-isoquinolin]-7′-yl)amino)-1,2-dihydro-3H-pyrazolo[3,4-d]pyrimidin-3-one], for which the 50% inhibitory concentration (IC50) at Wee1 kinase was less than 10 nM.
Same read-out and setting: with `C=CCn1c(=O)c2cnc(Nc3ccc4c(c3)CN(C(C)=O)CC43CC3)nc2n1-c1cccc(C(C)(C)O)n1` [Example 4, 6-((2′-Acetyl-2′,3′-dihydro-1′H-spiro[cyclopropane-1,4′-isoquinolin]-7′-yl)amino)-2-allyl-1-(6-(2-hydroxypropan-2-yl)pyridin-2-yl)-1,2-dihydro-3H-pyrazolo[3,4-d]pyrimidin-3-one] the figure was less than 10 nM.
Take `C=CCn1c(=O)c2cnc(Nc3ccc4c(c3)CN(C)CC4)nc2n1-c1cccc(C(C)(C)O)n1` [Example 5, 2-Allyl-1-(6-(2-hydroxypropan-2-yl)pyridin-2-yl)-6-((2-methyl-1,2,3,4-tetrahydroisoquinolin-7-yl)amino)-1,2-dihydro-3H-pyrazolo[3,4-d]pyrimidin-3-one]: the figures for the IC50 in the experiment with SW480 cells, in the experiment on H23 cells and at Wee1 kinase were 100 to 1000 nM, less than 100 nM and less than 10 nM, respectively.
Taken in the same sequence, the figures for `C=CCn1c(=O)c2cnc(Nc3ccc4c(c3)CNCC4)nc2n1-c1cccc(C(C)(C)O)n1` [Example 6, 2-Allyl-1-(6-(2-hydroxypropan-2-yl)pyridin-2-yl)-6-((1,2,3,4-tetrahydroisoquinolin-7-yl)amino)-1,2-dihydro-3H-pyrazolo[3,4-d]pyrimidin-3-one hydrochloride] were 100 to 1000 nM, 100 to 1000 nM and less than 10 nM.
`C=CCn1c(=O)c2cnc(Nc3ccc4c(c3)CN(CC)CC4)nc2n1-c1cccc(C(C)(C)O)n1` [Example 7, 2-Allyl-6-((2-ethyl-1,2,3,4-tetrahydroisoquinolin-7-yl)amino)-1-(6-(2-hydroxypropan-2-yl)pyridin-2-yl)-1,2-dihydro-3H-pyrazolo[3,4-d]pyrimidin-3-one]: the results for the concentration for half-maximal inhibition (IC50) in the experiment on H23 cells and on Wee1 kinase were 100 to 1000 nM and less than 10 nM, respectively.
Take `C=CCn1c(=O)c2cnc(Nc3ccc4c(c3)CN(S(C)(=O)=O)CC4)nc2n1-c1cccc(C(C)(C)O)n1` [Example 9, 2-Allyl-1-(6-(2-hydroxypropan-2-yl)pyridin-2-yl)-6-((2-(methylsulfonyl)-1,2,3,4-tetrahydroisoquinolin-7-yl)amino)-1,2-dihydro-3H-pyrazolo[3,4-d]pyrimidin-3-one]: the IC50 in the experiment on SW480 cells was 100 to 1000 nM; on Wee1 kinase, less than 10 nM.
In the case of `C=CCn1c(=O)c2cnc(Nc3ccc4c(c3)CN(C(C)C)CC4)nc2n1-c1cccc(C(C)(C)O)n1` [Example 10, 2-Allyl-1-(6-(2-hydroxypropan-2-yl)pyridin-2-yl)-6-((2-isopropyl-1,2,3,4-tetrahydroisoquinolin-7-yl)amino)-1,2-dihydro-3H-pyrazolo[3,4-d]pyrimidin-3-one], the IC50 at Wee1 kinase is less than 10 nM.
`C=CCn1c(=O)c2cnc(Nc3ccc4c(c3)CN(C3COC3)CC4)nc2n1-c1cccc(C(C)(C)O)n1` [Example 14, 2-Allyl-1-(6-(2-hydroxypropan-2-yl)pyridin-2-yl)-6-((2-(oxetan-3-yl)-1,2,3,4-tetrahydroisoquinolin-7-yl)amino)-1,2-dihydro-3H-pyrazolo[3,4-d]pyrimidin-3-one]: the IC50 in the experiment on H23 cells lay within 100 to 1000 nM.
On the same count and under the same terms, to `C=CCn1c(=O)c2cnc(Nc3ccc4c(c3)CCN(CCO)C4)nc2n1-c1cccc(C(C)(C)O)n1` [Example 17, 2-Allyl-6-((2-(2-hydroxyethyl)-1,2,3,4-tetrahydroisoquinolin-6-yl)amino)-1-(6-(2-hydroxypropan-2-yl)pyridin-2-yl)-1,2-dihydro-3H-pyrazolo[3,4-d]pyrimidin-3-one hydrogen chloride] belongs 100 to 1000 nM.
As to `C=CCn1c(=O)c2cnc(Nc3ccc4c(c3)CCN(C3COC3)C4)nc2n1-c1cccc(C(C)(C)O)n1` [Example 18, 2-Allyl-1-(6-(2-hydroxypropan-2-yl)pyridin-2-yl)-6-((2-(oxetan-3-yl)-1,2,3,4-tetrahydroisoquinolin-6-yl)amino)-1,2-dihydro-3H-pyrazolo[3,4-d]pyrimidin-3-one], the values for the IC50 in the experiment with H23 cells and on Wee1 kinase were 100 to 1000 nM and less than 10 nM, respectively.
Taken in the same sequence, the figures for `C=CCn1c(=O)c2cnc(Nc3ccc4c(c3)CNC4)nc2n1-c1cccc(C(C)(C)O)n1` [Example 21, 2-Allyl-1-(6-(2-hydroxypropan-2-yl)pyridin-2-yl)-6-(isoindolin-5-ylamino)-1,2-dihydro-3H-pyrazolo[3,4-d]pyrimidin-3-one hydrogen chloride] were 100 to 1000 nM and less than 10 nM.
Regarding `C=CCn1c(=O)c2cnc(Nc3ccc4c(c3)CN(C)C4)nc2n1-c1cccc(C(C)(C)O)n1` [Example 23, 2-Allyl-1-(6-(2-hydroxypropan-2-yl)pyridin-2-yl)-6-((2-methylisoindolin-5-yl)amino)-1,2-dihydro-3H-pyrazolo[3,4-d]pyrimidin-3-one], the 50% inhibitory concentration (IC50) in the experiment on H23 cells was 100 to 1000 nM; at Wee1 kinase it was less than 10 nM.
In the case of `C=CCn1c(=O)c2cnc(Nc3ccc4c(n3)CN(C)CC4)nc2n1-c1cccc(C(C)(C)O)n1` [Example 24, 2-Allyl-1-(6-(2-hydroxypropan-2-yl)pyridin-2-yl)-6-((7-methyl-5,6,7,8-tetrahydro-1,7-naphthyridin-2-yl)amino)-1,2-dihydro-3H-pyrazolo[3,4-d]pyrimidin-3-one], on Wee1 kinase, the IC50 lay in the range of 10 to 100 nM.
`C=CCn1c(=O)c2cnc(Nc3cnc4c(c3)CN(C)CC4)nc2n1-c1cccc(C(C)(C)O)n1` [Example 25, 2-Allyl-1-(6-(2-hydroxypropan-2-yl)pyridin-2-yl)-6-((6-methyl-5,6,7,8-tetrahydro-1,6-naphthyridin-3-yl)amino)-1,2-dihydro-3H-pyrazolo[3,4-d]pyrimidin-3-one]: on Wee1 kinase, the IC50 is less than 10 nM.
Same read-out and setting: to `C=CCn1c(=O)c2cnc(Nc3ccc4c(n3)CCN(C)C4)nc2n1-c1cccc(C(C)(C)O)n1` [Example 26, 2-Allyl-1-(6-(2-hydroxypropan-2-yl)pyridin-2-yl)-6-((6-methyl-5,6,7,8-tetrahydro-1,6-naphthyridin-2-yl)amino)-1,2-dihydro-3H-pyrazolo[3,4-d]pyrimidin-3-one] belongs 10 to 100 nM.
In the experiment on H23 cells, `C=CCn1c(=O)c2cnc(Nc3ccc4c(c3)CN(C)CC4(F)F)nc2n1-c1cccc(C(C)(C)O)n1` [Example 27, 2-Allyl-6-((4,4-difluoro-2-methyl-1,2,3,4-tetrahydroisoquinolin-7-yl)amino)-1-(6-(2-hydroxypropan-2-yl)pyridin-2-yl)-1,2-dihydro-3H-pyrazolo[3,4-d]pyrimidin-3-one] displayed an IC50 greater than 1000 nM.
For the compound `C=CCn1c(=O)c2cnc(Nc3ccc4c(c3)CNCC4(F)F)nc2n1-c1cccc(C(C)(C)O)n1` [Example 28, 2-Allyl-6-((4,4-difluoro-1,2,3,4-tetrahydroisoquinolin-7-yl)amino)-1-(6-(2-hydroxypropan-2-yl)pyridin-2-yl)-1,2-dihydro-3H-pyrazolo[3,4-d]pyrimidin-3-one hydrogen chloride], the IC50 in the experiment with H23 cells was 100 to 1000 nM; on Wee1 kinase, less than 10 nM.
